Legend:
human SLC6A19 [1] = target: T1, human SLC6A19 (Homo sapiens, UniProt Q695T7); test: Example B-1: L-[3H]leucine uptake, liquid scintillation, in CHO cells with doxycycline-inducible expression of human SLC6A19 and TMEM27; assay type: cell-based; details: read-out: SLC6A19_Radioligand Uptake Assay IC50
T1 construct: expressed in transfected cells
T1 sequence (Q695T7 1-634): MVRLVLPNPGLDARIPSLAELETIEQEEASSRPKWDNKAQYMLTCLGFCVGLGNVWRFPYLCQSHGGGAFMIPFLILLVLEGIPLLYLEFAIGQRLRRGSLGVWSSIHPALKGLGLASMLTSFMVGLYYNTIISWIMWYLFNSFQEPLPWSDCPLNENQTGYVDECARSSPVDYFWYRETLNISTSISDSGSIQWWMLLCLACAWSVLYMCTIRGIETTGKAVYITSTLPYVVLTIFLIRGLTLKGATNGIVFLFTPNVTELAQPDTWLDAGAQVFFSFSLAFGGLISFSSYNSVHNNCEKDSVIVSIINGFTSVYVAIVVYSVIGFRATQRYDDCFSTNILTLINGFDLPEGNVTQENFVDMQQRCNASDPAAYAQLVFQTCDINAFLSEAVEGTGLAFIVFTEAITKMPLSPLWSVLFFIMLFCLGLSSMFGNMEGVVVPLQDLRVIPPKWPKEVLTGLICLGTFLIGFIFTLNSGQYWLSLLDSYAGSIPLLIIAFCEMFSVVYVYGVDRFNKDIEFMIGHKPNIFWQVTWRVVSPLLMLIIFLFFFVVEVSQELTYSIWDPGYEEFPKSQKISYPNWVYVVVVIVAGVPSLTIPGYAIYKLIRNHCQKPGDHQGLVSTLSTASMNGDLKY
T1 sequence (Q9HBJ8 15-222 partner): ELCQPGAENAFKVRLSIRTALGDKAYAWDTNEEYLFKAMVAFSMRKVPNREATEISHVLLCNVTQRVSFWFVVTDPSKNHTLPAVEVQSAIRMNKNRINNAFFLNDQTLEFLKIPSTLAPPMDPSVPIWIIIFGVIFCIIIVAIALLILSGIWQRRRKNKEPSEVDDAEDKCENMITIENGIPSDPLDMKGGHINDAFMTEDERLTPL
Summary of the method: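 CHO cells induced 18 h with 1 µg/mL doxycycline (uninduced wells as expression control), washed in HBSS, compound in 8-point 3-fold series (0.5% DMSO), then 1.6 mM final [3H]:cold leucine (1:15000) uptake for 20 min at 37 °C. Scintillation counting; activity normalized to positive control (0%) and DMSO (100%).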

human SLC6A19 [2] = target: T1, human SLC6A19; test: Example B2: 13C6,15N-isoleucine uptake, RapidFire mass spectrometry, in CHO cells with doxycycline-inducible expression of human SLC6A19 and TMEM27; assay type: cell-based; details: read-out: SLC6A19_RapidFire Uptake Assay IC50
Summary of the method: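 Labelled isoleucine (13C6,15N; 2 mM added) was given 20 min at 37 °C, following a 20-min compound pre-treatment (10-point 2-fold series, duplicate). Cells were doxycycline-induced CHO co-expressing human SLC6A19 and TMEM27. Intracellular label was quantified by RapidFire-MS peak areas against a 13C-leucine standard.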

| IC50 (human SLC6A19 [1]) | IC50 (human SLC6A19 [2]) | Structure (SMILES) |
| --- | --- | --- |
| 574 nM | 949 nM | CN(C(=O)NCc1cc2cc(Cl)ccc2[nH]1)[C@@H]1CCCN(C(=O)CC2CCC2)C1 [Compound 120, (R)-3-((5-chloro-1H-indol-2-yl)methyl)-1-(1-(2-cyclobutylacetyl)piperidin-3-yl)-1-methylurea] |
| 629 nM | 839 nM | CN(C(=O)NCc1cc2cc(Cl)ccc2[nH]1)[C@@H]1CCCN(C(=O)C2CC(O)C2)C1 (stereo partly drawn) [Compound 119, (R)-3-((5-chloro-1H-indol-2-yl)methyl)-1-(1-(3-hydroxycyclobutane-1-carbonyl)piperidin-3-yl)-1-methylurea] |
| 367 nM | 255 nM | Cc1conc1N1CCC[C@@H](N(C)C(=O)NCc2cc3cc(Cl)ccc3[nH]2)C1 [Compound 234, (R)-3-((5-chloro-1H-indol-2-yl)methyl)-1-methyl-1-(1-(4-methylisoxazol-3-yl)piperidin-3-yl)urea] |
| 162 nM | 326 nM | CC(=O)N1CCC[C@@H](N(C)C(=O)NCc2cc3cc(Cl)c(OCc4cc(C)on4)cc3[nH]2)C1 [Compound 135, (R)-1-(1-acetylpiperidin-3-yl)-3-((5-chloro-6-((5-methylisoxazol-3-yl)methoxy)-1H-indol-2-yl)methyl)-1-methylurea] |
| 673 nM | 893 nM | CC(=O)N1CCC[C@@H](N(C)C(=O)NCc2cc3[nH]cc(C)c3cc2Cl)C1 [Compound 235, (R)-1-(1-acetylpiperidin-3-yl)-3-((5-chloro-3-methyl-1H-indol-6-yl)methyl)-1-methylurea] |
| 434 nM | 1210 nM | CN(C(=O)NCc1cc2cc(Cl)ccc2[nH]1)[C@@H]1CCCN(C(=O)c2cccnc2)C1 [Compound 237, (R)-3-((5-chloro-1H-indol-2-yl)methyl)-1-methyl-1-(1-nicotinoylpiperidin-3-yl)urea] |
| 656 nM | 947 nM | CN(C(=O)NCc1cc2cc(Cl)ccc2[nH]1)[C@@H]1CCCN(C(=O)Cc2ccncc2)C1 [Compound 188, (R)-3-((5-chloro-1H-indol-2-yl)methyl)-1-methyl-1-(1-(2-(pyridin-4-yl)acetyl)piperidin-3-yl)urea] |
| 794 nM | 953 nM | CC(=O)N1CCC[C@@H](N(C)C(=O)NCc2cc3cc(C4CC4)ccc3[nH]2)C1 [Compound 220, (R)-1-(1-acetylpiperidin-3-yl)-3-((5-cyclopropyl-1H-indol-2-yl)methyl)-1-methylurea] |
| > 10000 nM | 12900 nM | CCc1ccc2cc(CNC(=O)N(C)[C@@H]3CCCN(C(C)=O)C3)[nH]c2c1 [Compound 219, (R)-1-(1-acetylpiperidin-3-yl)-3-((6-ethyl-1H-indol-2-yl)methyl)-1-methylurea] |
| 209 nM | 287 nM | CN(C(=O)NCc1cc2cc(Cl)ccc2[nH]1)[C@@H]1CCCN(C(=O)c2cnco2)C1 [Compound 239, (R)-3-((5-chloro-1H-indol-2-yl)methyl)-1-methyl-1-(1-(oxazole-5-carbonyl)piperidin-3-yl)urea] |
| 483 nM | 578 nM | CN(C(=O)NCc1cc2cc(Cl)ccc2[nH]1)[C@@H]1CCCN(C(=O)c2cccc(O)c2)C1 [Compound 190, (R)-3-((5-chloro-1H-indol-2-yl)methyl)-1-(1-(3-hydroxybenzoyl)piperidin-3-yl)-1-methylurea] |
| 262 nM | 153 nM | CC(=O)N1C[C@@H](C)C[C@@H](N(C)C(=O)NCc2cc3cc(Cl)ccc3[nH]2)C1 (racemic) [Compound 243, 1-((3R,5S and 3S,5R)-1-acetyl-5-methylpiperidin-3-yl)-3-((5-chloro-1H-indol-2-yl)methyl)-1-methylurea] |
| 387 nM | 626 nM | CN(C(=O)NCc1cc2cc(Cl)ccc2[nH]1)[C@@H]1CCCN(C(=O)c2ccccn2)C1 [Compound 241, (R)-3-((5-chloro-1H-indol-2-yl)methyl)-1-methyl-1-(1-picolinoylpiperidin-3-yl)urea] |
| 232 nM | 163 nM | CN(C(=O)NCc1cc2cc(Cl)ccc2[nH]1)[C@@H]1CCCN(C(=O)c2ccn(CC(F)(F)F)n2)C1 [Compound 198, (R)-3-((5-chloro-1H-indol-2-yl)methyl)-1-methyl-1-(1-(1-(2,2,2-trifluoroethyl)-1H-pyrazole-3-carbonyl)piperidin-3-yl)urea] |
| 2170 nM | 4870 nM | CC(=O)N1CC[C@@H](C)[C@@H](N(C)C(=O)NCc2cc3cc(Cl)ccc3[nH]2)C1 (racemic) [Compound 203, 1-((3R,4R and 3S,4S)-1-acetyl-4-methylpiperidin-3-yl)-3-((5-chloro-1H-indol-2-yl)methyl)-1-methylurea] |
| 434 nM | 582 nM | CN(C(=O)NCc1cc2cc(Cl)ccc2[nH]1)[C@@H]1CCCN(C(=O)Cc2cn[nH]c2)C1 [Compound 199, (R)-1-(1-(2-(1H-pyrazol-4-yl)acetyl)piperidin-3-yl)-3-((5-chloro-1H-indol-2-yl)methyl)-1-methylurea] |
| > 50000 nM | > 50000 nM | CC(=O)N1C[C@@H](N(C)C(=O)NCc2cc3cc(Cl)ccc3[nH]2)CC[C@H]1C (single isomer, unassigned) [Compound 193, 1-((3S,6R or 3R,6S)-1-acetyl-6-methylpiperidin-3-yl)-3-((5-chloro-1H-indol-2-yl)methyl)-1-methylurea] |

Source: patent publication US20260184693A1, “INHIBITORS OF SOLUTE CARRIER FAMILY 6A MEMBER 19 (SLC6A19) AND METHODS OF USE THEREOF” (Maze Therapeutics, Inc., priority 2022, published 2026)
